Test results: the NIST ThermoML archive (doi:10.1021/je200093f)
Where “and” joins values, the source holds several entries; their conditions need not be identical. Equal values may be shown once.

How the values were obtained:
[1] = 298.15 K; 101.33 kPa; Liquid; Vibrating tube method
[2] = xn = mol fraction of the nth substance listed; details: 298.15 K, 101 kPa, Liquid, Vibrating tube method
[3] = excess molar enthalpy (molar enthalpy of mixing); xn = mol fraction of the nth substance listed; details: 298.15 K, 101 kPa, Liquid, Calvet calorimetry

Cn1ccnc1 [1-methylimidazole]
Details	mass density [kg/m3]
[1]	1031.14

Cn1ccnc1 [1-methylimidazole] + CO
Details	excess molar enthalpy, x1 = 0.005084	excess molar enthalpy, x1 = 0.007607 [kcal/mol]	excess molar enthalpy, x1 = 0.01012 [kcal/mol]	excess molar enthalpy, x1 = 0.01261 [kcal/mol]	excess molar enthalpy, x1 = 0.0151 [kcal/mol]	mass density, x1 = 0.005084	mass density, x1 = 0.007607	mass density, x1 = 0.01012	mass density, x1 = 0.01261	mass density, x1 = 0.0151
[2]	–	–	–	–	–	789.231 kg/m3 and 789.234 kg/m3	790.606 kg/m3 and 790.615 kg/m3	791.972 kg/m3 and 791.975 kg/m3	793.304 kg/m3 and 793.323 kg/m3	794.617 kg/m3 and 794.633 kg/m3
[3]	-0.00838 kcal/mol and -0.00841 kcal/mol	-0.0126	-0.0167	-0.0208	-0.0249	–	–	–	–	–

Cn1ccnc1 [1-methylimidazole] + O
Details	excess molar enthalpy, [3] [kcal/mol]	mass density, [2] [kg/m3]
x1 = 0.001133	-0.00255	997.279
x1 = 0.001134	-0.00254	997.281
x1 = 0.002264	-0.00507	997.513
x1 = 0.002265	-0.00505	997.514
x1 = 0.003392	-0.00759	997.75
x1 = 0.003394	-0.00757	997.75
x1 = 0.004518	-0.0101	997.985
x1 = 0.00452	-0.01	997.986
x1 = 0.005642	-0.0126	998.222
x1 = 0.005644	-0.0125	998.246
x1 = 0.006765	-0.015	998.459
x1 = 0.006766	-0.015	998.483

Cc1cccc(C)n1 [2,6-dimethylpyridine]
Details	mass density [kg/m3]
[1]	918.19

Cc1cccc(C)n1 [2,6-dimethylpyridine] + CO
Details	excess molar enthalpy, [3]	mass density, [2]
x1 = 0.001741	-0.00321 kcal/mol and -0.00319 kcal/mol	–
x1 = 0.003476	-0.00637 kcal/mol and -0.00641 kcal/mol	788.131 kg/m3 and 788.126 kg/m3
x1 = 0.005205	-0.0096 kcal/mol	788.964 kg/m3
x1 = 0.005206	-0.00957 kcal/mol	788.971 kg/m3
x1 = 0.006928	-0.0128 kcal/mol	789.788 kg/m3
x1 = 0.006929	-0.0127 kcal/mol	789.802 kg/m3
x1 = 0.008643	-0.0159 kcal/mol	790.602 kg/m3
x1 = 0.008647	-0.0159 kcal/mol	790.625 kg/m3
x1 = 0.01035	-0.019 kcal/mol	791.405 kg/m3
x1 = 0.01036	-0.019 kcal/mol	791.414 kg/m3

Cc1cccc(C)n1 [2,6-dimethylpyridine] + O
Details	excess molar enthalpy, [3] [kcal/mol]	mass density, [2] [kg/m3]
x1 = 0.000772	-0.00277	996.946
x1 = 0.000773	-0.00281	996.945
x1 = 0.001543	-0.00565	996.862
x1 = 0.001544	-0.00567	996.861
x1 = 0.002312	-0.00855	996.792
x1 = 0.002314	-0.0086	996.791
x1 = 0.00308	-0.0115	996.732
x1 = 0.003083	-0.0115	996.734
x1 = 0.003847	-0.0144	996.685
x1 = 0.003851	-0.0144	996.684
x1 = 0.004615	-0.0173	996.644
x1 = 0.004618	-0.0173	996.644

Cc1cccnc1 [3-methylpyridine]
Details	mass density [kg/m3]
[1]	952.61

Cc1cccnc1 [3-methylpyridine] + CO
Details	excess molar enthalpy, [3] [kcal/mol]	mass density, [2]
x1 = 0.002075	–	787.397 kg/m3
x1 = 0.004143	-0.00457	788.32 kg/m3
x1 = 0.004144	-0.00455	788.293 kg/m3
x1 = 0.006201	-0.00684	789.24 kg/m3
x1 = 0.006203	-0.00681	789.213 kg/m3
x1 = 0.008251	-0.00912	790.158 kg/m3
x1 = 0.008253	-0.00905	790.117 kg/m3
x1 = 0.01029	-0.0113	791.057 kg/m3 and 791.007 kg/m3
x1 = 0.01232	-0.0135	791.892 kg/m3

Cc1cccnc1 [3-methylpyridine] + O
Details	excess molar enthalpy, [3]	mass density, [2]
x1 = 0.000922	-0.00213 kcal/mol and -0.00212 kcal/mol	997.03 kg/m3 and 997.031 kg/m3
x1 = 0.001842	-0.00422 kcal/mol and -0.0042 kcal/mol	997.017 kg/m3 and 997.018 kg/m3
x1 = 0.00276	-0.00626 kcal/mol	997.008 kg/m3
x1 = 0.002761	-0.00629 kcal/mol	997.007 kg/m3
x1 = 0.003677	-0.00828 kcal/mol	996.999 kg/m3
x1 = 0.003678	-0.00833 kcal/mol	996.998 kg/m3
x1 = 0.004592	-0.0103 kcal/mol	996.991 kg/m3
x1 = 0.004594	-0.0103 kcal/mol	996.989 kg/m3
x1 = 0.005507	-0.0122 kcal/mol	996.982 kg/m3
x1 = 0.005509	-0.0122 kcal/mol	996.98 kg/m3

Cc1ccncc1 [4-methylpyridine]
Details	mass density [kg/m3]
[1]	949.87

Cc1ccncc1 [4-methylpyridine] + CO
Details	excess molar enthalpy, [3]	mass density, [2]
x1 = 0.004138	-0.00498 kcal/mol	788.325 kg/m3
x1 = 0.004139	-0.00496 kcal/mol	788.319 kg/m3
x1 = 0.006195	-0.00746 kcal/mol and -0.00747 kcal/mol	789.246 kg/m3 and 789.247 kg/m3
x1 = 0.008243	-0.00988 kcal/mol	790.15 kg/m3
x1 = 0.008244	-0.00991 kcal/mol	790.152 kg/m3
x1 = 0.01028	-0.0123 kcal/mol	791.066 kg/m3 and 791.039 kg/m3
x1 = 0.01231	-0.0146 kcal/mol	791.923 kg/m3
x1 = 0.01232	-0.0146 kcal/mol	791.924 kg/m3
